Active and inactive are the calls of the source. No cut-off for these calls is given here.
Legend:
Hepatitis B virus [1] = assay: Antiviral activity against Hepatitis B virus infected in human HepG2.215 cells assessed as inhibition of HBsAg secretion after 3 days by ELISA; type: functional, organism-based; details: HepG2.2.15, 72 h
Hepatitis B virus [2] = assay: Antiviral activity against Hepatitis B virus infected in human HepG2.215 cells assessed as inhibition of HBeAg secretion after 3 days by ELISA; type: functional, organism-based; details: HepG2.2.15, 72 h
[3] = Cytotoxicity against human HepG2.215 cells assessed as reduction in cell viability after 3 days by MTT assay; type: cell-based, HepG2 2.2.15; details: HepG2.2.15 cells
[4] = Selectivity index, ratio of CC50 for human HepG2.215 cells to IC50 for Hepatitis B virus infected in human HepG2.215 cells assessed as inhibition of HBsAg secretion; type: toxicity, cell-based; details: HepG2.2.15 cells (Hepatitis B virus infected), read-out: Ratio CC50/IC50
[5] = Selectivity index, ratio of CC50 for human HepG2.215 cells to IC50 for Hepatitis B virus infected in human HepG2.215 cells assessed as inhibition of HBeAg secretion; type: toxicity, cell-based; details: HepG2.2.15 cells (Hepatitis B virus infected), read-out: Ratio CC50/IC50
Hepatitis B virus [6] = assay: Antiviral activity against Hepatitis B virus infected in human HepG2.215 cells assessed as inhibition of HBeAg secretion by measuring FITC-labeled monoclonal mouse HBeAg antibody non-labeled cells level at 6.25 uM after 3 days by flow cytometry (reference value: 0.5%); type: functional; details: HepG2.2.15, 72 h
Hepatitis B virus [7] = assay: Antiviral activity against Hepatitis B virus infected in human HepG2.215 cells assessed as inhibition of HBeAg secretion by measuring FITC-labeled monoclonal mouse HBeAg antibody non-labeled cells level at 12.5 uM after 3 days by flow cytometry (reference value: 0.5%); type: functional; details: HepG2.2.15, 72 h
Hepatitis B virus [8] = assay: Antiviral activity against Hepatitis B virus infected in human HepG2.215 cells assessed as inhibition of HBeAg secretion by measuring FITC-labeled monoclonal mouse HBeAg antibody non-labeled cells level at 25 uM after 3 days by flow cytometry (reference value: 0.5%); type: functional; details: HepG2.2.15, 72 h
Hepatitis B virus [9] = assay: Antiviral activity against Hepatitis B virus infected in human HepG2.215 cells assessed as reduction in cellular viral DNA level at 25 uM after 9 days by real time QF-PCR analysis relative to control; type: functional; details: for inhibition at 25 µM: HepG2.2.15, 216 h
[10] = Selectivity index, ratio of CC50 for human HepG2.215 cells to IC50 for Hepatitis B virus infected in human HepG2.215 cells assessed as reduction in covalently closed circular DNA level; type: toxicity, cell-based; details: HepG2.2.15 cells (Hepatitis B virus infected), read-out: Ratio CC50/IC50
Hepatitis B virus [11] = assay: Antiviral activity against Hepatitis B virus infected in human HepG2.215 cells assessed as reduction in covalently closed circular DNA level after 9 days by real time QF-PCR analysis; type: functional, organism-based; details: HepG2.2.15, 216 h

Compound | IC50 (Hepatitis B virus [1]) [µM] | IC50 (Hepatitis B virus [2]) [µM] | IC50 (Hepatitis B virus [11]) [µM] | CC50 at 72 h [3] [µM] | selectivity ratio [4] | selectivity ratio [5] | inhibition at 6.25 µM (Hepatitis B virus [6]) [%] | inhibition at 12.5 µM (Hepatitis B virus [7]) [%] | inhibition at 25 µM (Hepatitis B virus [8]) [%] | inhibition at 25 µM (Hepatitis B virus [9]) [%] | selectivity ratio [10] | inhibition (Hepatitis B virus [9])
C[C@H]1[C@H](C)CC[C@]2(C(=O)O)CC[C@]3(C)C(=CC[C@@H]4[C@@]5(C)CC[C@H](O)C(C)(C)[C@@H]5CC[C@]43C)[C@H]12 [URSOLIC ACID] | 1360 | 897 |  | 1540 | 1.13 | 1.72 |  |  |  |  |  | 
C[C@H]1C(=O)CC[C@@H]2[C@]1(C)CC[C@H]1[C@@]2(C)CC[C@@]2(C)[C@@H]3CC(C)(C)CC[C@]3(C)CC[C@]12C [FRIEDELINE] | 1210 | 1250 |  | 1790 | 1.48 | 1.43 |  |  |  |  |  | 
C[C@H]1OC(=O)CC[C@@H]2[C@]1(C)CC[C@H]1[C@@]2(C)CC[C@@]2(C)[C@@H]3CC(C)(C)CC[C@]3(C)CC[C@]12C [FRIEDELIN-3,4-LACTONE] | 765 | 790 |  | 482 | 0.63 | 0.61 |  |  |  |  |  | 
CC1(C)CC[C@]2(C(=O)O)CC[C@]3(C)C(=CC[C@@H]4[C@@]5(C)CC[C@H](O)C(C)(C)[C@@H]5CC[C@]43C)[C@@H]2C1 [OLEANOLIC_ACID] | 1360 | 814 |  | 731 | 0.53 | 0.9 |  |  |  |  |  | 
Nc1ccn([C@H]2CS[C@@H](CO)O2)c(=O)n1 | 917 | 1440 |  | 876 |  |  |  |  |  | 92.8 |  | 
CC1(C)[C@@H](O)CC[C@]2(C)[C@H]3C(=O)C=C4[C@@H]5C[C@@](C)(C(=O)O)CC[C@]5(C)CC[C@@]4(C)[C@]3(C)CC[C@@H]12 [ENOXOLONE] | 510 | 806 |  | 650 | 1.27 | 0.81 |  |  |  |  |  | 
CC1(C)CC[C@]2(C(=O)O)CC[C@]3(C)C(Br)(CC[C@@H]4[C@@]5(C)CCC(=O)C(C)(C)[C@@H]5CC[C@]43C)[C@@H]2C1 (some centres not stated) | 883 | 925 |  | 100 | 0.11 | 0.1 |  |  |  |  |  | 

These reach a lower IC50 (Hepatitis B virus [1]). Values come first.

IC50 (Hepatitis B virus [1]) [µM] | IC50 (Hepatitis B virus [2]) [µM] | IC50 (Hepatitis B virus [11]) [µM] | Compound | CC50 at 72 h [3] [µM] | selectivity ratio [4] | selectivity ratio [5] | inhibition at 6.25 µM (Hepatitis B virus [6]) [%] | inhibition at 12.5 µM (Hepatitis B virus [7]) [%] | inhibition at 25 µM (Hepatitis B virus [8]) [%] | inhibition at 25 µM (Hepatitis B virus [9]) [%] | selectivity ratio [10] | inhibition (Hepatitis B virus [9])
305 | 92.3 |  | CC1(C)CC[C@]2(C(=O)O)CC[C@]3(C)C(Br)(CC[C@@H]4[C@@]5(C)CCC(=O)OC(C)(C)[C@@H]5CC[C@]43C)[C@@H]2C1 (some centres not stated) | 485 | 1.59 | 5.21 |  |  |  |  |  | 
406 | 384 |  | C[C@H]1[C@H](C)CC[C@]2(C(=O)O)CC[C@]3(C)C(=CC[C@@H]4[C@@](C)(CCC(=O)O)[C@H](C(C)(C)O)CC[C@]43C)[C@H]12 | 461 | 1.13 | 1.2 |  |  |  |  |  | 
321 | 0.14 | 33.5 | CC1(C)CC[C@]2(C(=O)O)CC[C@]3(C)C(=CC(=O)[C@@H]4[C@@]5(C)CCC(=O)OC(C)(C)[C@@H]5CC[C@]43C)[C@@H]2C1 | 583 | 1.81 | > 200 | 7.7 | 7.8 | 33.5 | 82.6 | 17.4 | 
284 | 176 |  | C[C@H]1[C@H](C)CC[C@]2(C(=O)O)CC[C@]3(C)C(=CC[C@@H]4[C@@]5(C)CCC(=O)OC(C)(C)[C@@H]5CC[C@]43C)[C@H]12 | 406 | 1.43 | 2.3 |  |  |  |  |  | 
286 | 149 |  | CC1(C)CC[C@@]23CC[C@]4(C)[C@@](OC2=O)([C@@H]3C1)[C@@H](O)C[C@@H]1[C@@]2(C)CCC(=O)OC(C)(C)[C@@H]2CC[C@]14C | 540 | 1.57 | 3.03 |  |  |  |  |  | Active
340 | 112 |  | CC1(C)CC[C@@]23CC[C@]4(C)[C@@](OC2=O)([C@@H]3C1)[C@@H](O)C[C@@H]1[C@@](C)(CCC(=O)O)[C@H](C(C)(C)O)CC[C@]14C | 452 | 1.32 | 4.04 |  |  |  |  |  | Active
360 | 0.86 | 32.7 | CC1(C)CC[C@]2(C(=O)O)CC[C@]3(C)C(=CC[C@@H]4[C@@]5(C)CCC(=O)OC(C)(C)[C@@H]5CC[C@]43C)[C@@H]2C1 | 477 | 1.32 | > 200 | 6.2 | 10.6 | 34 | 81.6 | 14.5 | 
171 | 81.9 |  | CC1(C)OC(=O)CC[C@]2(C)[C@H]3C(=O)C=C4[C@@H]5C[C@@](C)(C(=O)O)CC[C@]5(C)CC[C@@]4(C)[C@]3(C)CC[C@@H]12 | 546 | 3.2 | 6.67 |  |  |  |  |  | Active
259 | 257 | 12.3 | CC(C)(O)[C@@H]1CC[C@]2(C)[C@H](C(=O)C=C3[C@@H]4C[C@@](C)(C(=O)O)CC[C@]4(C)CC[C@]32C)[C@@]1(C)CCC(=O)O | 2040 | 7.87 | 7.95 |  |  |  | 91.4 | 166 | 

Source: ChEMBL document CHEMBL4219203, “Design, synthesis and biological evaluation of seco-A-pentacyclic triterpenoids-3,4-lactone as potent non-nucleoside HBV inhibitors” (Bioorg Med Chem Lett, 2018)
